Tests used:
[1] = target: VEGFR3 (Homo sapiens, UniProt P35916); assay: Z′-LYTE kinase inhibition assay
[2] = tested on: A549 lung cancer xenograft; assay: A549 lung cancer subcutaneous xenograft model; format: in vivo, Balb/c nude mice; settings: for T/C / TGI: Day 21; for Tumor volume at Day 21 / area of CD31 (tumor micro-vessel density, IHC): mean ± SEM; for area of CD31 (tumor micro-vessel density, IHC): n = 3, control 3.38 ± 0.49
[3] = target: JNK1 (Homo sapiens, UniProt P45983); assay: Z′-LYTE kinase inhibition assay
[4] = target: CAMK2α (Homo sapiens, UniProt Q9UQM7); assay: Z′-LYTE kinase inhibition assay
[5] = tested on: CT26 colon adenocarcinoma cells; assay: Tumor xenograft model in transgenic zebrafish; format: in vivo; settings: 0.5 and 2.0 μmol/L in fish water, 7 days
[6] = target: PKA (Homo sapiens, UniProt P17612); assay: Z′-LYTE kinase inhibition assay
[7] = target: TAOK2 (Homo sapiens, UniProt Q9UL54); assay: Z′-LYTE kinase inhibition assay
[8] = target: SRC (Homo sapiens, UniProt P12931); assay: Z′-LYTE kinase inhibition assay
[9] = tested on: HUVECs; settings: 5.0 μmol/L (P < 0.05), 50.0 μmol/L (P < 0.001) vs. hVEGF-165 treated control
[10] = target: PDK1 (Homo sapiens, UniProt O15530); assay: Z′-LYTE kinase inhibition assay
[11] = target: EphA2 (Homo sapiens, UniProt P29317); assay: Z′-LYTE kinase inhibition assay
[12] = target: MST4 (Homo sapiens, UniProt Q9P289); assay: Z′-LYTE kinase inhibition assay
[13] = tested on: phosphorylation of FGFR1‒4 and ERK; assay: Western blot, FGF/FGFRs/ERK signalling in HUVECs; format: cell-based, human; settings: 5.0 μmol/L; induced by 50 ng/mL bFGF in HUVECs; P < 0.01
[14] = target: GSK3β (Homo sapiens, UniProt P49841); assay: Z′-LYTE kinase inhibition assay
[15] = tested on: phosphorylation of VEGFR2 and ERK; assay: Western blot, VEGF/VEGFR2/ERK signalling in HUVECs; format: cell-based, human; settings: 5.0 μmol/L; induced by 50 ng/mL hVEGF 165 in HUVECs; P < 0.01
[16] = tested on: HUVECs; assay: VEGF-induced HUVECs proliferation; format: cell-based; settings: Homo sapiens, HUVEC, 72 h, read-out: IC50 HUVECs
[17] = tested on: HUVECs; assay: Transwell invasion assay; format: cell-based, human; settings: driven by 50 ng/mL hVEGF-165; dose-dependent; 0.5 μmol/L P < 0.01; 5.0 and 50.0 μmol/L P < 0.001
[18] = tested on: NCI-H520 lung cancer xenograft; assay: NCI-H520 lung cancer subcutaneous xenograft model; format: in vivo, Balb/c nude mice; settings: for T/C / TGI: Day 21; for Tumor volume at Day 21 / area of CD31 (tumor micro-vessel density, IHC): mean ± SEM; for area of CD31 (tumor micro-vessel density, IHC): n = 3, control 4.96 ± 0.62
[19] = Pharmacokinetic study in beagles; format: in vivo; settings: both, beagle, dog, plasma
[20] = target: CK1α (Homo sapiens, UniProt P48729); assay: Z′-LYTE kinase inhibition assay
[21] = target: CHK1 (Homo sapiens, UniProt O14757); assay: Z′-LYTE kinase inhibition assay
[22] = target: MAP4K4 (Homo sapiens, UniProt O95819); assay: Z′-LYTE kinase inhibition assay
[23] = target: p38α (Homo sapiens, UniProt Q16539); assay: Z′-LYTE kinase inhibition assay
[24] = target: DYRK3 (Homo sapiens, UniProt O43781); assay: Z′-LYTE kinase inhibition assay
[25] = target: FGFR2 (Homo sapiens, UniProt P21802); assay: Z′-LYTE kinase inhibition assay
[26] = tested on: patient-derived tumor (LI-03-0020) xenograft; assay: Liver cancer patient-derived tumor xenograft; format: in vivo, Balb/c nude mice
[27] = target: CDK2 (Homo sapiens, UniProt P24941); assay: Z′-LYTE kinase inhibition assay
[28] = target: MAPKAPK2 (Homo sapiens, UniProt P49137); assay: Z′-LYTE kinase inhibition assay
[29] = liver cancer PDX model, 200 mg/kg oral QD, Day 21

JNK1, sequence (P45983 whole entry): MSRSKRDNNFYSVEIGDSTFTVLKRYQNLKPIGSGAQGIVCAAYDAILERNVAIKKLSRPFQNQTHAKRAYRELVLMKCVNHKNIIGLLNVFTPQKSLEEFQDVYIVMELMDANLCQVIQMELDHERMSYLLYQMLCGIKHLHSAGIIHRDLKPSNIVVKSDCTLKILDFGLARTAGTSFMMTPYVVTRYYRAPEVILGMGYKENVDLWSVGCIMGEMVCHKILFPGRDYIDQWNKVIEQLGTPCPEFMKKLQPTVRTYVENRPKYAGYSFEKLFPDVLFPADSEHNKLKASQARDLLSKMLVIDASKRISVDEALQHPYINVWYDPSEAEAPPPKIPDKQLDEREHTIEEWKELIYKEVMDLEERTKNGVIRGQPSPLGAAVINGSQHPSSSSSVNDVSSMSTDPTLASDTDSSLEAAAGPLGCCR
GSK3β, sequence (P49841 whole entry): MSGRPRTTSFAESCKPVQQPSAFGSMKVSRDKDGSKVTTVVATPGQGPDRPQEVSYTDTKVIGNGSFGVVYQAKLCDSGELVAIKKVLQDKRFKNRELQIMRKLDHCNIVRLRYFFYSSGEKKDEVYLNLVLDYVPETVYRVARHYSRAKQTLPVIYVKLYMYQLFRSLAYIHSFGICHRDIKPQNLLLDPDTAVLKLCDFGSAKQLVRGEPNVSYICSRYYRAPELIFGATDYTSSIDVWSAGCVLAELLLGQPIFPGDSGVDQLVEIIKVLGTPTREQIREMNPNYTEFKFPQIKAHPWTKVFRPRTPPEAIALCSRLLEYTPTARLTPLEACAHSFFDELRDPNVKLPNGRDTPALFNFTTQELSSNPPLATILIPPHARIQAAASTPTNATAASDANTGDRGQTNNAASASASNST
CK1α, sequence (P48729 whole entry): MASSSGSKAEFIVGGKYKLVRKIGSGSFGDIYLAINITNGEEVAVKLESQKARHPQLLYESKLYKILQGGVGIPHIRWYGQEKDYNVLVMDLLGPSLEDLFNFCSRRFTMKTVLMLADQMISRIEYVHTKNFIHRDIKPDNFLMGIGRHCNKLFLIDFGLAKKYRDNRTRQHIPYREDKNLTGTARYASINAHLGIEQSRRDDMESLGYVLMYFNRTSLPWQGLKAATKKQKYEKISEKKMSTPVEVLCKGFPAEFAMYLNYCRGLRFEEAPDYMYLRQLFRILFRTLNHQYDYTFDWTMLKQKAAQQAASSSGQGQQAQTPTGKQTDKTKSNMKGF
VEGFR3, sequence (P35916 25-1363): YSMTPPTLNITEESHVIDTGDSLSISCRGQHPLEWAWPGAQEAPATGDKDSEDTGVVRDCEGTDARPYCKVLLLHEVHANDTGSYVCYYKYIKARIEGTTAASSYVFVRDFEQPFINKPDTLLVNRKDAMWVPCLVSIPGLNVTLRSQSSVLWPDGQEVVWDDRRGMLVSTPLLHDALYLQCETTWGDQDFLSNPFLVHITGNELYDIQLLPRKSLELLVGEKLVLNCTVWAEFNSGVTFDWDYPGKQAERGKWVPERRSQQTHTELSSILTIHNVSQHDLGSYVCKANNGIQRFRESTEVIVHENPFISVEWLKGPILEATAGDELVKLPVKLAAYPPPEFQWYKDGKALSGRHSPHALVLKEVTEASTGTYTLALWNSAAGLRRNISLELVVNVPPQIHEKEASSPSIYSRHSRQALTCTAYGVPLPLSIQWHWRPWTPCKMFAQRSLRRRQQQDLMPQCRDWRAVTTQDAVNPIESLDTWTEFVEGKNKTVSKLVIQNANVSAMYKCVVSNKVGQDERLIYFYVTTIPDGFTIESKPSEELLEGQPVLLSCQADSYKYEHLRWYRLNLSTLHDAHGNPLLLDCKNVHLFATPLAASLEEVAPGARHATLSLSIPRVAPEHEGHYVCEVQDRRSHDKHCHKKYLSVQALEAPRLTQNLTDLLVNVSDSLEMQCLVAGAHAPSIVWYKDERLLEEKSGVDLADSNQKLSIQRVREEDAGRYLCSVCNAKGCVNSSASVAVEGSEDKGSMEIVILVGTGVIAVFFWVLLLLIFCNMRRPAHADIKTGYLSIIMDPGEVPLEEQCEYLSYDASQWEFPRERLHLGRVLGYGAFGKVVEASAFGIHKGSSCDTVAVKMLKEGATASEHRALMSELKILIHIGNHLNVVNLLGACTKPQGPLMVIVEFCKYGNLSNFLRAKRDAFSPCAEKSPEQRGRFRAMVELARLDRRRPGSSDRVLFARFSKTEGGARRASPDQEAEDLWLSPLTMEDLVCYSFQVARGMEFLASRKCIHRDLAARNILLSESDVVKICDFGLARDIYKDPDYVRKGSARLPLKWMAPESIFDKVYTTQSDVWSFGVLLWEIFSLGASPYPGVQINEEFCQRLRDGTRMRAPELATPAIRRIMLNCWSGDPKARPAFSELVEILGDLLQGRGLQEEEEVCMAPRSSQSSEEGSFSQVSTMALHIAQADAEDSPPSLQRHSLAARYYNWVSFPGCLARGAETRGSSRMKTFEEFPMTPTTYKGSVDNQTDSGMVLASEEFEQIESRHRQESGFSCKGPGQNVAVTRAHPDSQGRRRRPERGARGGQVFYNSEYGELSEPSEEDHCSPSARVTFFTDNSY
DYRK3, sequence (O43781 whole entry): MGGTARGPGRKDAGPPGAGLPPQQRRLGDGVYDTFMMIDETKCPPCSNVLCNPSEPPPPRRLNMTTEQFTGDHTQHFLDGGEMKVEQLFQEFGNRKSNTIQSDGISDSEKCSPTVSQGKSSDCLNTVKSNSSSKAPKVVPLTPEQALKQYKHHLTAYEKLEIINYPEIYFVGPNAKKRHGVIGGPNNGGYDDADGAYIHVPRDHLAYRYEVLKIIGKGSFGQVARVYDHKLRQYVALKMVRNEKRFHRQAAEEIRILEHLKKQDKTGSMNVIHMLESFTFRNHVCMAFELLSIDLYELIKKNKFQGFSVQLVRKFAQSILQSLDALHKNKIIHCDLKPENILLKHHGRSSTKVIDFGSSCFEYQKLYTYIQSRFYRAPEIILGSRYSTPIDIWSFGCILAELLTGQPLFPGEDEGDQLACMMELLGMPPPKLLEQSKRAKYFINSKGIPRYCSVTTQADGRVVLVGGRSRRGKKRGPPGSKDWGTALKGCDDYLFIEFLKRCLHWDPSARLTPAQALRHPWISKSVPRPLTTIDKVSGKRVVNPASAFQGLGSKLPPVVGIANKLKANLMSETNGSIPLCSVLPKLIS
p38α, sequence (Q16539 whole entry): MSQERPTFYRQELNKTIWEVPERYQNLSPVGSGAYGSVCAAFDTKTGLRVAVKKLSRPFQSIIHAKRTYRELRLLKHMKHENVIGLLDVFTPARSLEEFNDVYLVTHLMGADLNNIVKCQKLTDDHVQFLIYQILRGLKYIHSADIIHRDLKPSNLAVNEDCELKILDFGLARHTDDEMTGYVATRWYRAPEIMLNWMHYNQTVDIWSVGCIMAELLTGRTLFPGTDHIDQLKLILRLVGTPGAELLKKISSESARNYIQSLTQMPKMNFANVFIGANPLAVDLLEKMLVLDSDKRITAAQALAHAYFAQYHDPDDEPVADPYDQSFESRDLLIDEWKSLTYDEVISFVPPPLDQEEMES
CAMK2α, sequence (Q9UQM7 whole entry): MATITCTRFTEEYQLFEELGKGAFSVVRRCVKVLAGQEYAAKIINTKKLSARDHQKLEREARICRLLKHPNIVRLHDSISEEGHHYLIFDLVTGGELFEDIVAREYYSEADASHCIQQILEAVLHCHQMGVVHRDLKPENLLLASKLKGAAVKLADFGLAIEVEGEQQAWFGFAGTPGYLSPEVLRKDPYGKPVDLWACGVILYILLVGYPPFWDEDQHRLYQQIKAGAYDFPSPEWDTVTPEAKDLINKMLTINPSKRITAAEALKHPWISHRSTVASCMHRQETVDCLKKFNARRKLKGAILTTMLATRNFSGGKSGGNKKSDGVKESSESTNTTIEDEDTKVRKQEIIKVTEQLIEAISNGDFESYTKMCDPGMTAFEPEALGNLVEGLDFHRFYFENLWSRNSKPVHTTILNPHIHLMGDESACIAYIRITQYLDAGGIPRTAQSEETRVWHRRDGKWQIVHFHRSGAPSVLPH
MAPKAPK2, sequence (P49137 whole entry): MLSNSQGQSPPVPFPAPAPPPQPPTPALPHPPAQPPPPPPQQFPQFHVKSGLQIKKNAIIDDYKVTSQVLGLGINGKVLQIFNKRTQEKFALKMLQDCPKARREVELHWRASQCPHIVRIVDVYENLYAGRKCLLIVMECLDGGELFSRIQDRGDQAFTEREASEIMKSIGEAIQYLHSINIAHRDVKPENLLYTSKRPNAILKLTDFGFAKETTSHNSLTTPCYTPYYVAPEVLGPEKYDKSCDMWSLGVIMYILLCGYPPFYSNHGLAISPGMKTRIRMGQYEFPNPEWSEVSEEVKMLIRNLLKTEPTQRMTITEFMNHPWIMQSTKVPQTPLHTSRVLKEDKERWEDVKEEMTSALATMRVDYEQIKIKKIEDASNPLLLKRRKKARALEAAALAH
MST4, sequence (Q9P289 whole entry): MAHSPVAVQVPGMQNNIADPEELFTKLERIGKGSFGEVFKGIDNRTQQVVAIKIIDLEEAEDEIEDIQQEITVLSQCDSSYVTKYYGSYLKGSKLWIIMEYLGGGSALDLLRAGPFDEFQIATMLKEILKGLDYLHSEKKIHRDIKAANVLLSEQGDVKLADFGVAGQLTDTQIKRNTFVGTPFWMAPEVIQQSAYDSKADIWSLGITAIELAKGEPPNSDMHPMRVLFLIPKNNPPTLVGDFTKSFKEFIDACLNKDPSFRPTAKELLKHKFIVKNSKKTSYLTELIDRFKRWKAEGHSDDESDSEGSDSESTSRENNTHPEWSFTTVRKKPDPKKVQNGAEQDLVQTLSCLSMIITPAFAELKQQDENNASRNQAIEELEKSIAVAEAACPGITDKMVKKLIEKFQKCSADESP

For COc1cc2nccc(Oc3ccc(NC(=S)NC4CC4)c(Cl)c3F)c2cc1C(N)=O [WXFL-152, 4-(3-Chloro-4-(3-cyclopropylthioureido)-2-fluorophenoxy)-7-methoxyquinoline-6-carboxamide], which IC50 [1] is on record?
The IC50 was 0.0085 µM.

And the T/C ([2]; 50 mg/kg p.o. QD)?
The T/C was 29%.

What about the TGI ([2]; 50 mg/kg p.o. QD) of the same molecule?
The TGI was 78%.

What about the “Tumor volume at Day 21” value ([2]; 50 mg/kg p.o. QD) of the same molecule?
Its value is 430 ± 42 mm^3.

And the “area of CD31 (tumor micro-vessel density, IHC)” value (“area of CD31” for short) ([2]; 50 mg/kg)?
Its value is 2.20 ± 0.29.

And the T/C ([2]; 100 mg/kg p.o. QD)?
The T/C was 27%.

What about the TGI ([2]; 100 mg/kg p.o. QD) of the same molecule?
The TGI was 80%.

And the “Tumor volume at Day 21” value ([2]; 100 mg/kg p.o. QD)?
The value was 401 ± 38 mm^3.

And the “area of CD31” value ([2]; 100 mg/kg)?
Its value is 1.27 ± 0.48.

And the IC50 [3]?
Its IC50 is greater than 10 µM.

What about the IC50 [4] of the same molecule?
The IC50 was greater than 10 µM.

What about the “tumor angiogenesis and tumor size in zebrafish xenograft” value [5] of the same molecule?
The value was “few tumors exhibiting angiogenesis and small tumors”.

What about the IC50 [6] of the same molecule?
Its IC50 is greater than 10 µM.

And the IC50 [7]?
Its IC50 is greater than 10 µM.

What about the IC50 [8] of the same molecule?
Its IC50 is 2.65 µM.

What about the “migration of HUVECs (wound healing)” value [9] of the same molecule?
Its value is “appreciably inhibited”.

And the IC50 [10]?
Its IC50 is greater than 10 µM.

And the IC50 [11]?
Its IC50 is greater than 3.33 µM.

What about the IC50 [12] of the same molecule?
The IC50 was greater than 10 µM.

And the “phosphorylation of FGFR1‒4 and ERK” value [13]?
Its value is “significantly inhibited”.

What about the IC50 [14] of the same molecule?
Its IC50 is greater than 10 µM.

And the “phosphorylation of VEGFR2 and ERK” value [15]?
Its value is “significantly suppressed”.

What about the IC50 [16] of the same molecule?
Its IC50 is 0.071 µM.

What about the “invasion of HUVECs” value [17] of the same molecule?
The value was “significantly inhibited”.

And the T/C ([18]; 50 mg/kg p.o. QD)?
The T/C was 58%.

What about the TGI ([18]; 50 mg/kg p.o. QD) of the same molecule?
Its TGI is 51%.

And the “Tumor volume at Day 21” value ([18]; 50 mg/kg p.o. QD)?
Its value is 704 ± 107 mm^3.

What about the “area of CD31” value ([18]; 50 mg/kg) of the same molecule?
The value was 1.96 ± 0.05.

And the T/C ([18]; 100 mg/kg p.o. QD)?
The T/C was 36%.

And the TGI ([18]; 100 mg/kg p.o. QD)?
Its TGI is 72%.

And the “Tumor volume at Day 21” value ([18]; 100 mg/kg p.o. QD)?
Its value is 478 ± 85 mm^3.

What about the “area of CD31” value ([18]; 100 mg/kg) of the same molecule?
Its value is 1.83 ± 0.26.

What about the AUC(0-inf) ([19]; iv, 2 mg/kg) of the same molecule?
Its AUC(0-inf) is 5.13 ± 0.9 µM·h.

And the AUC(0-t) ([19]; iv, 2 mg/kg)?
The AUC(0-t) was 5.1 ± 0.9 µM·h.

And the Cmax ([19]; iv, 2 mg/kg)?
Its Cmax is 4.36 ± 0.96 µM.

What about the Vd ([19]; iv, 2 mg/kg) of the same molecule?
Its Vd is 1.45 ± 0.33 L/kg.

What about the clearance ([19]; iv, 2 mg/kg) of the same molecule?
The clearance was 14.5 ± 2.74 mL/min/kg.

And the half-life ([19]; iv, 2 mg/kg)?
The half-life was 4.91 ± 2.18 h.

And the AUC(0-inf) ([19]; po, 10 mg/kg)?
Its AUC(0-inf) is 20.2 ± 20.2 µM·h.

What about the AUC(0-t) ([19]; po, 10 mg/kg) of the same molecule?
Its AUC(0-t) is 19.6 ± 20.2 µM·h.

And the Cmax ([19]; po, 10 mg/kg)?
The Cmax was 6.28 ± 6.57 µM.

And the Tmax ([19]; po, 10 mg/kg)?
The Tmax was 1.25 ± 0.612 h.

And the bioavailability ([19]; po, 10 mg/kg)?
Its bioavailability is 76.9%.

And the half-life ([19]; po, 10 mg/kg)?
Its half-life is 5.77 ± 2.17 h.

And the AUC(0-inf) ([19]; po, 30 mg/kg)?
The AUC(0-inf) was 51.8 ± 62.3 µM·h.

What about the AUC(0-t) ([19]; po, 30 mg/kg) of the same molecule?
The AUC(0-t) was 50 ± 58.8 µM·h.

And the Cmax ([19]; po, 30 mg/kg)?
Its Cmax is 16.2 ± 16.5 µM.

What about the Tmax ([19]; po, 30 mg/kg) of the same molecule?
The Tmax was 0.917 ± 0.585 h.

What about the bioavailability ([19]; po, 30 mg/kg) of the same molecule?
The bioavailability was 65.4%.

What about the half-life ([19]; po, 30 mg/kg) of the same molecule?
The half-life was 5.25 ± 1.03 h.

What about the AUC(0-inf) ([19]; po, 30 mg/kg/day) of the same molecule?
The AUC(0-inf) was 37.9 ± 31.9 µM·h.

And the AUC(0-t) ([19]; po, 30 mg/kg/day)?
The AUC(0-t) was 23.7 ± 16.1 µM·h.

What about the Cmax at 7 days ([19]; po, 30 mg/kg/day) of the same molecule?
Its Cmax at 7 days is 6.97 ± 5.26 µM.

And the Tmax at 7 days ([19]; po, 30 mg/kg/day)?
Its Tmax at 7 days is 1.08 ± 0.736 h.

What about the half-life ([19]; po, 30 mg/kg/day) of the same molecule?
Its half-life is 12.3 ± 12.6 h.

And the AUC(0-inf) ([19]; po, 100 mg/kg)?
Its AUC(0-inf) is 230 ± 51.5 µM·h.

And the AUC(0-t) ([19]; po, 100 mg/kg)?
Its AUC(0-t) is 199 ± 90.5 µM·h.

What about the Cmax ([19]; po, 100 mg/kg) of the same molecule?
Its Cmax is 47.8 ± 20.8 µM.

What about the Tmax ([19]; po, 100 mg/kg) of the same molecule?
Its Tmax is 2.33 ± 0.816 h.

And the bioavailability ([19]; po, 100 mg/kg)?
Its bioavailability is 78%.

What about the half-life ([19]; po, 100 mg/kg) of the same molecule?
Its half-life is 2.99 ± 0.7 h.

What about the IC50 [20] of the same molecule?
Its IC50 is greater than 10 µM.

And the IC50 [21]?
The IC50 was greater than 10 µM.

And the IC50 [22]?
Its IC50 is 0.079 µM.

What about the IC50 [23] of the same molecule?
Its IC50 is greater than 3.33 µM.

What about the IC50 [24] of the same molecule?
Its IC50 is greater than 10 µM.

And the IC50 [25]?
Its IC50 is 0.0155 µM.

What about the “area of CD31” value ([26]; liver PDX model, 200 mg/kg, mean ± SEM, n = 3, control 0.30 ± 0.10) of the same molecule?
The value was 0.19 ± 0.06.

And the T/C [26, 29]?
The T/C was 35%.

What about the TGI [26, 29] of the same molecule?
Its TGI is 76%.

What about the “Tumor volume at Day 21” value ([26]; liver cancer PDX model, 200 mg/kg oral QD, mean ± SEM) of the same molecule?
Its value is 334 ± 69 mm^3.

What about the IC50 [27] of the same molecule?
Its IC50 is greater than 10 µM.

And the IC50 [28]?
Its IC50 is greater than 10 µM.
